From US7923465B2, “Cannabinoid receptor ligands, pharmaceutical compositions containing them, and process for their preparation” (priority 2005, dated 2011)

Tests used:
CB1 [1] = target: T1, CB1 (Rattus norvegicus, UniProt P20272); assay: Rat CB1 receptor binding using brain membrane, [3H]SR141716A displacement (Protocol I); design: CB1 receptor present in a rat brain membrane preparation; from tissue; host or cells: rat brain membrane; details: rat brain membrane, [3H]SR141716A displacement
hCB1 = hCB1 (Homo sapiens, UniProt P21554); assay: In vitro binding assay using hCB1-CHO membranes, [3H]-CP-55,940 displacement (Protocol II); design: expressed in transfected cells; host or cells: CHO (hCB1-CHO, generated in-house)
Chain of hCB1 (P21554 whole entry): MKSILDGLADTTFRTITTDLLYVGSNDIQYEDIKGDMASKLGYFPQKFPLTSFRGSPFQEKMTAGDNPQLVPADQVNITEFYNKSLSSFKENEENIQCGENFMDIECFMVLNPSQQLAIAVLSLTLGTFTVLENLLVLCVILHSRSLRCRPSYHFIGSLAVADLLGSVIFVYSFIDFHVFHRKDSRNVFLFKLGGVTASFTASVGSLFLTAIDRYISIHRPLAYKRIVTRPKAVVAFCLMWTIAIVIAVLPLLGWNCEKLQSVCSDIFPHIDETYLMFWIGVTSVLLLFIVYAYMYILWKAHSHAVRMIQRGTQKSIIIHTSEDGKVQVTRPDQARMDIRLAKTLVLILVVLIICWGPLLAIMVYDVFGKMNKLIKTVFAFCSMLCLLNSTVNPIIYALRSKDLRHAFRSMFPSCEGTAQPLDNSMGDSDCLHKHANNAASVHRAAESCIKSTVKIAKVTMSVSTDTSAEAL
Description: II. Protocol for In Vitro Assay Using hCB1-CHO Membranes
The reaction was set up in a total volume of 200 μl in PEI (Poly(ethyleneimine)) (0.2%) precoated Millipore GFB (Glass Fibre-B) filter plates. 1 mM stocks of test compounds were prepared in DMSO and tested at a final concentration of 300 nM. The non-specific binding was determined by 0.5 μM CP-55, 940. […] The assay mixture (with or without the test compound) was incubated at 37° C. for 1 hour. The reaction was stopped by rapid filtration under vacuum and the radioactivity on the filters was measured by liquid scintillation counting.

CB1 [2] = target: T1, CB1; assay: GTPγS binding assay, CB1 functional assay in rat cerebellar membrane (Protocol VIII); format: biochemical; design: 10 μg rat cerebellum membrane; from tissue; host or cells: rat cerebellum membrane, prepared in-house; details: for Per Se % Stimulation: GTPγS binding over basal, rat cerebellar membrane; for % Inhibition of WIN-55212-2 induced stimulation: GTPγS binding
Outline: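 Rat cerebellar membranes (10 μg) incubated 1 h at 30 °C with 0.2 nM [35S]GTPγS, 50 μM GDP, and compound at 1 μM or 300 nM, alone or with 1 μM WIN 55,212-2, in Tris/MgCl2/EGTA/NaCl pH 7.4. Filter-bound radioactivity counted; percent stimulation calculated against basal specific binding (nonspecific defined by 10 μM GTPγS).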

hCB2 = hCB2 (Homo sapiens, UniProt P34972); assay: In vitro binding assay using hCB2-CHO membranes, [3H]-CP-55,940 displacement (Protocol IV); design: expressed in transfected cells; host or cells: CHO (hCB2-CHO, generated in-house); details: hCB2-CHO membranes, [3H]-CP-55,940 displacement
Chain of hCB2 (P34972 whole entry): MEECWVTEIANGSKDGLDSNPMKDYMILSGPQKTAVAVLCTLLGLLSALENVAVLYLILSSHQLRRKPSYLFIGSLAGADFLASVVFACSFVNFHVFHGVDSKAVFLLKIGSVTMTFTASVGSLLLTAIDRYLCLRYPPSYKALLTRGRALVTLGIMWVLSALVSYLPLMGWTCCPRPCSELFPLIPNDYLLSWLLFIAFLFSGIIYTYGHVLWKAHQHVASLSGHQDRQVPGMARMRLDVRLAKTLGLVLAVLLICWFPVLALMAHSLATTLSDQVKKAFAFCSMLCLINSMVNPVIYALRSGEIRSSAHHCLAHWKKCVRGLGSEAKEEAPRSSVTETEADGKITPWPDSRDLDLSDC
Outline: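 Compounds were tested at a single 300 nM final concentration for displacing 0.75 nM [3H]-CP-55,940 from hCB2-CHO membranes (1 h, 30 °C, 50 mM Tris pH 7.4, 5 mM MgCl2, 1 mM EDTA, 0.1% BSA). Filter-bound radioactivity was counted, with 0.5 μM unlabelled CP-55,940 for nonspecific binding; results are % displacement.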

[3] = tested at 1 uM in presence of 1 μM WIN 55,212-2

T1 sequence (P20272 whole entry): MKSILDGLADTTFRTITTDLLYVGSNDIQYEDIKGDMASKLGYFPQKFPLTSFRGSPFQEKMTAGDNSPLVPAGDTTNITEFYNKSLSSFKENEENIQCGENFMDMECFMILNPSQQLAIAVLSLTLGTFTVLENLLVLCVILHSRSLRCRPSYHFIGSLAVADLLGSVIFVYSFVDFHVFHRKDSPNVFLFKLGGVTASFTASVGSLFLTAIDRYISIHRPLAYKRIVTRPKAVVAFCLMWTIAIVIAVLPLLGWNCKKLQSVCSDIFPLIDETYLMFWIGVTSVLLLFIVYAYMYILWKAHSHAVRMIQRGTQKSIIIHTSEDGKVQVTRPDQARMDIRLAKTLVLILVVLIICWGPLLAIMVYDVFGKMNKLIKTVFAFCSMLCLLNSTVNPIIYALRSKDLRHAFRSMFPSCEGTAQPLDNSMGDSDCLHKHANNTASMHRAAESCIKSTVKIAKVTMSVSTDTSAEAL

Row | SMILES | % Displacement Protocol I (CB1 [1]) [%] | % Displacement Protocol II (hCB1) [%] | Per Se % Stimulation (CB1 [2]; tested at 1 uM) [%] | % Inhibition of WIN-55212-2 induced stimulation (CB1 [2]; [3]) [%] | % Displacement Protocol IV (hCB2) [%] | Per Se % Stimulation (CB1 [2]; tested at 300 nM) [%] | % Inhibition of WIN-55212-2 induced stimulation (CB1 [2]; tested at 300 nM in presence of 1 μM WIN 55,212-2) [%]
1 | O=C(NCc1ccccc1)c1nn(-c2ccccc2)c2c1C1CC3CC(C1)CC2C3 [Example 170, N(7)-Benzyl-5-phenyl-5,6-diazatetracyclo[7.3.1.1^3,11.0^4,8]tetradeca-4(8)-6-diene-7-carboxamide] | 40.0 | 29.49 | 17.5 | 80.3 | 27.16 |  | 
2 | O=C(NCc1ccccc1)c1nn(-c2ccc(Cl)cc2Cl)c2c1C1CC3CC(C1)CC2C3 [Example 179, N(7)-Benzyl-5-(2′,4′-dichlorophenyl)-5,6-diazatetracyclo[7.3.1.1^3,11.0^4,8]tetradeca-4(8)-6-diene-7-carboxamide] | 48 | 30.88 | 7.8 | 89.7 | 18.21 |  | 
3 | O=C(NC1CCCCC1)c1nn(-c2ccccc2Cl)c2c1C1CC3CC(C1)CC2C3 [Example 183, N(7)-cyclohexyl-5-(2-chlorophenyl)-5,6-diazatetracyclo[7.3.1.1^3,11.0^4,8]tetradeca-4(8)-6-diene-7-carboxamide] | 45.9 | 17.24 | 13.0 | 72.5 | 18.23 |  | 
4 | O=C(c1n[nH]c2c1C1CC3CC(CC2C3)C1)N1CCCCC1 [Example 188, 6,7-Diazatetracyclo[7.3.1.1^3,11.0^4,8]tetradeca-4(8)-5-dien-5-yl-piperidinomethanone] | 19.5 | 12.5 |  |  | 36.01 |  | 
5 | Cn1nc2c(c1C(=O)NN1CCCCC1)C1CC3CC(CC2C3)C1 [Example 189a, N(7)-Piperidino-6-methyl-5,6-diazatetracyclo[7.3.1.1^3,11.0^4,8]tetradeca-4(8)-6-diene-7-carboxamide] | 7 | 21.2 |  |  | 0.81 |  | 
6 | Cn1nc(C(=O)NN2CCCCC2)c2c1C1CC3CC(CC2C3)C1 [Example 189b, N(7)-Piperidino-5-methyl-5,6-diazatetracyclo[7.3.1.1^3,11.0^4,8]tetradeca-4(8)-6-diene-7-carboxamide] | 3 | 24.03 |  |  | 2.56 |  | 
7 | O=C(c1nn(-c2ccc(Cl)cc2)c2c1C1CCC2C1)N1CCCCC1 (stereo not drawn) [Example 210, 1-(4-Chlorophenyl)-4,5,6,7-tetrahydro-1H-4,7-methano-indazol-3-yl piperidino methanone] | 12.6 | 11.58 |  |  | 17.69 |  | 
8 | O=C(NN(c1ccccc1)c1ccccc1)c1nn(-c2ccc(Cl)cc2)c2c1C1CCC2C1 (stereo not drawn) [Example 236] | 75.5 | 55.25 | 8.0 | 83.0 |  |  | 
9 | C[C@H](NC(=O)c1nn(-c2ccc(Cl)cc2Cl)c2c1C1CCC2C1)c1ccccc1 (stereo partly drawn) [Example 252, N(3)-[S-(1-phenylethyl)]-1-(2,4-dichlorophenyl)-4,5,6,7-tetrahydro-1H-4,7-methano-indazole-3-carboxamide] | 99.8 | 74.52 |  |  |  | 48.2 | 58.8
10 | CN(NC(=O)c1nn(-c2ccc(Cl)cc2Cl)c2c1C1CCC2c2ccccc21)c1ccc(Cl)cc1Cl (stereo not drawn) [Example 505, N(12)-{N′-[(2,4-Dichlorophenyl)-N′-methyl]amino}-10-(2,4-dichlorophenyl)-10,11-diazatetracyclo[6.5.2.0^2,7.0^9,13]pentadeca-2,4,6,9(13),11-pentaene-12-carboxamide] | 90.6 | 77.51 | 15.6 | 94.4 |  |  | 
